Test results as given in ChEMBL document CHEMBL1212705, “Gene expression signatures and small-molecule compounds link a protein kinase to Plasmodium falciparum motility” (Nat Chem Biol, 2008).

Assays:
Plasmodium falciparum [1] = test: Antiplasmodial activity against Plasmodium falciparum 3D7 by [3H]hypoxanthine incorporation assay; conditions: 3D7, 3 h
Plasmodium falciparum [2] = test: Antiplasmodial activity against Plasmodium falciparum 3D7 after 72 hrs by SYBR green assay; format: functional, organism-based; conditions: 3D7, 72 h
[3] = Inhibition of GST-fused Plasmodium falciparum recombinant CDPK1 expressed in Escherichia coli Rosetta 2 assessed as inhibition of [gamma-33P]ATP incorporation into substrate peptide by scintillation counting

SMILES	EC50 (Plasmodium falciparum [1])	EC50 (Plasmodium falciparum [2])	IC50 [3]
C[C@@H]1CC[C@H]2[C@@H](C)C(=O)O[C@@H]3O[C@@]4(C)CC[C@@H]1[C@]32OO4 [ARTEMISININ]	< 10 nM	28 nM	–
O=C(c1ccc(Nc2nc(Nc3cnc4ccccc4c3)nc3c2ncn3-c2ccccc2)cc1)N1CCCCC1	–	101 nM	3850 nM
CCOc1ccc(-n2cnc3c(Nc4ccc(C(=O)N5CCCCC5)cc4)nc(N[C@H]4CC[C@H](N)CC4)nc32)cc1	–	535 nM	240 nM
O=C(c1ccc(Nc2nc(NCCc3c[nH]cn3)nc3c2ncn3-c2cccc(Cl)c2)cc1)N1CCCCC1	–	352 nM	626 nM
N[C@H]1CC[C@H](Nc2nc(Nc3ccc(C(=O)N4CCCCC4)cc3)c3ncn(-c4cccc(OCc5ccccc5)c4)c3n2)CC1	–	312 nM	4040 nM
CN1CCN(C(=O)c2cccc(Nc3nc(N[C@H]4CC[C@H](N)CC4)nc4c3ncn4-c3ccccc3)c2)CC1	–	1300 nM	6870 nM
CCN(CC)CCCC(C)Nc1ccnc2cc(Cl)ccc12 (configuration not stated) [CHLOROQUINE]	< 10 nM	–	–
N[C@H]1CC[C@H](Nc2nc(Nc3ccc(C(=O)N4CCCCC4)cc3)c3ncn(-c4ccc(C(=O)O)cc4)c3n2)CC1	–	> 10000 nM	28 nM
CC(C)(C)c1ccc(-n2cnc3c(Nc4ccc(C(=O)N5CCCCC5)cc4)nc(N[C@H]4CC[C@H](N)CC4)nc32)cc1	–	596 nM	3490 nM
N[C@H]1CC[C@H](Nc2nc(Nc3ccc(C(=O)N4CCCCC4)cc3)c3ncn(-c4ccc5c(c4)OCO5)c3n2)CC1	–	400 nM	342 nM
N[C@H]1CC[C@H](Nc2nc(Nc3ccc(CN4CCOCC4)cc3)c3ncn(-c4ccccc4)c3n2)CC1	–	174 nM	703 nM
O=C(c1ccc(Nc2nc(NCCCN3CCOCC3)nc3c2ncn3-c2ccccc2)cc1)N1CCCCC1	–	2990 nM	430 nM
O=C(c1ccc(Nc2nc(N[C@H]3CC[C@H](O)CC3)nc3c2ncn3-c2cccc(F)c2)cc1)N1CCCCC1	–	> 10000 nM	150 nM
N[C@H]1CC[C@H](Nc2nc(Nc3ccc(C(=O)N4CCCCC4)cc3)c3ncn(-c4cccc(C(=O)O)c4)c3n2)CC1	–	> 10000 nM	71 nM
